Results taken from US9006431B2, “Crystalline form of pemirolast” (Cardoz AB, priority 2009, dated 2015).
Values belong to the molecule of their own block, whether it stands above or below them.

Columns and labels:
[1] = Storage under ambient conditions followed by FT-Raman; assay type: physicochemical; settings: about a month
Description: FT-Raman spectra were recorded on a Bruker RFS 100 FT-Raman system with a near infrared Nd:YAG laser operating at 1064 nm and a liquid nitrogen-cooled germanium detector. 64 scans with a resolution of 2 cm^−1 were accumulated in the range from 3500 to 50 cm^−1. In general, 100 mW laser power was used.
The Raman spectrum was recorded directly after recrystallisation. All samples were then stored under ambient conditions on a shelf in a fume hood. […] This is shown in FIG. 4, where the lower spectrum accords to the earlier measurement and the upper spectrum accords to the later measurement.

[2] = Stability study at different moisture levels and temperatures (appearance, Karl Fischer, PXRD); assay type: physicochemical
Description: To determine the relative stability of pemirolast sodium obtained in accordance with the method described in Example 10 (hemihydrate), Example 11 (heptahydrate) and Example 5 (amorphous form) at different moisture levels, a stability study was performed.
The study was performed under four different storage conditions with different moisture levels and temperatures, 40° C./75% RH, 25° C./60% RH, room temperature/10-20% RH, and room temperature/>90% RH. The substances were stored open in glass beakers and samples were withdrawn periodically for analysis (time zero, 1 week and 4 weeks).
At the time intervals mentioned, the visual appearance was inspected by (a) placing a spatula of substance on a white background, munktell filter (no smearing or crushing of the substances was performed), and (b) by microscopy equipped with plane polarized light. The water content was also analysed using Karl Fischer titration. PXRD was conducted at time zero and at 4 weeks.

[3] = Dynamic Vapor Sorption (DVS) hygroscopicity classification; assay type: physicochemical; settings: for relative humidity above which significant water uptake starts: DVS; for hygroscopicity class by DVS analysis: mass change at 85% RH compared to the starting material
Description: HPLC was performed on a TSP HPLC (UV3000, AS3000, P4000, SCM1000 Soft. Version 4.1); column: Waters, X Terra MS C18 4.6×100 mm, 5μ (CC01); mobile phase A: H2O+0.1% TFA; mobile phase B: acetonitrile+0.1% TFA; reference concentration: ca. 0.09 mg/mL; retention time: 6.6 minutes; gradient: 0.0 min: A:95%/B:5%; 20.0 min: A:5%/B:95%; 21.0 min: A:95%/B:5%; 30.0 min: A:95%/B:5%; flow: 1.0 mL/minute; injection volume: 10 μL; wavelength: 254 nm. Dynamic Vapor Sorption (DVS) measurements were carried out on a Sorption Measurement System SPS11-100n. The sample was placed in an aluminum crucible and the sample was allowed to equilibrate at a given RH before starting a pre-defined humidity program. (1) 2 h at 50% RH; (2) 50→0% RH (5%/h); (3) 5 h at 0% RH; (4) 0→95% RH (5%/h); (5) 5 h at 95% RH; (6) 95→50% RH (5%/h); (7) 2 h at 50% RH. Hygroscopicity was classified according to the European Pharmacopoeia (storage at 80% RH/25° C. for 24 hours). The mass change at 85% RH was used for classification, as compared to the starting material (at ambient conditions)—very hygroscopic: increase of mass ≧15%; hygroscopic: increase of mass is less than 15% and equal to or greater than 2%; slightly hygroscopic: increase of mass is less than 2% and equal to or greater than 0.2%; deliquescent: sufficient water is absorbed to form a liquid.

[4] = Aqueous solubility (shake 24 hours, HPLC of filtrate); assay type: physicochemical; settings: doubly distilled water, 22° C.
Description: About 40 mg of a sample (obtained by way of the procedure described in Example 2 above) was dispersed in 0.25 mL of doubly distilled water. The suspension was shaken at 22° C. for 24 hours. Afterwards, a fast solid/liquid-separation was performed using an Eppendorf Thermomixer Comfort (400 rpm). The suspensions were filtered with Millipore Centrifugal Filter Devices (PTFE filter; 0.2 μm) in a Centrifuge Hettich EBA 12 R (15,000 g, 1 minute, 22° C.). The concentration of the sample in the filtrate was analyzed by HPLC, and the solid phase was analyzed by FT-Raman spectroscopy.

[5] = In vitro dissolution study (Ph. Eur. Apparatus 2, paddle); assay type: physicochemical; settings: 30 mg, 50 mM phosphate buffer pH 6.8, 50 rpm, 37° C.
Description: An in vitro dissolution study was performed on pemirolast potassium (obtained Chemtronica AB, Stockholm, Sweden) and pemirolast sodium hemihydrate (prepared in accordance with the method described in Example 10 above) using standard Ph. Eur. Methodology (Apparatus 2 (paddle), Ph. Eur., 2.9.3, using 50 mM phosphate buffer pH 6.8 as a dissolution medium. A stirring rate of 50 rpm was employed. The temperature was 37° C.). Tests were performed in triplicate. 30 mg of each substance was added to separate vessels and the timer started. Sampling was at regular intervals using a 1 mL plastic syringe, depending on how quickly the substance appeared to dissolve (by visual inspection). The sample was filtered into HPLC vials using a small diameter filter. The samples were analysed by reversed phase HPLC. Quantification of pemirolast was performed by means of UV detection.

[6] = cited from earlier work
[7] = humans; cited from earlier work
[8] = PXRD of 30 mg tablets after tabletting; assay type: physicochemical; settings: crushed and intact
Description: For all tablets, friability and crushing resistance tests were conducted according to standard methodology (Ph. Eur. 6.0, 2.9.7 and 2.9.8, respectively, with the exception that the crushing resistance results are presented in kp rather than N according to the Ph. Eur.). PXRD was also performed on the 30 mg tablets after tabletting on both crushed and intact tablets. In view of the endotherms observed (and reported in Example 11 above) by DSC for the heptahydrate, it was expected that this may limit the ability of that polymorph to form tablets by compression (given that internal temperatures of 70° C. can easily be reached during the compression process). It was therefore decided to analyse the 30 mg tablets by PXRD as stated above.

plasma tryptase = assay: Plasma tryptase levels in subjects with CRP above 0.9 mg/L; assay type: in vivo
[9] = listed as potassium salt of pemirolast
[10] = listed as Example 1, Sodium Hemihydrate
[11] = listed as Example 2, Sodium Hemihydrate

SMILES: Cc1cccn2c(=O)c(-c3nnn[n-]3)cnc12.[Na+] [amorphous form of pemirolast sodium, reference compound]
physical stability (Raman spectrum changed) [1]: physically unstable | solid phase stability ([2]; 60% RH and above): crystallized | solid phase stability ([2]; dry conditions (10-20% RH)): remains amorphous

SMILES: Cc1cccn2c(=O)c(-c3nnn[nH]3)cnc12 [pemirolast potassium, reference compound]
relative humidity above which significant water uptake starts [3]: above 70 % RH | hygroscopicity class by DVS analysis [3]: very hygroscopic (very hygroscopic: increase of mass ≧15%) | aqueous solubility [4, 9]: 192.38 mg/mL | pH of the saturated solution [4, 9]: 9.0 | dissolution behaviour ([5]; listed as potassium salt): dissolved as soon as it was added to the dissolution medium | hygroscopicity (reported) ([6]; Pharmaceutical Interview Form): hygroscopic | aqueous solubility (reported) ([6]; source: Pharmaceutical Interview Form): 179 to 182 mg/mL | plasma concentration profile [7]: sharp plasma concentration peaks

SMILES: Cc1cccn2c(=O)c(-c3nnn[nH]3)cnc12 [pemirolast, 9-Methyl-3-(1H-tetrazol-5-yl)-4H-pyrido[1,2-a]pyrimidin-4-one]
effect on plasma tryptase levels (plasma tryptase): does not concomitantly reduce plasma tryptase levels

Now from value to molecule, other results behind:

relative humidity above which significant water uptake starts [3, 10]: above 80 % RH | aqueous solubility [4, 11]: 23.64 mg/mL | pH of the saturated solution [4, 11]: 8.0 | solid phase stability ([2]; relative humidity of 60% and less (down to 10-20% RH), up to 4 weeks): stable | water content (Karl Fischer) on storage, unchanged ([2]; relative humidity of 60% and less, up to 4 weeks): 2.8% | phase transitions during tabletting (PXRD) [8]: no phase transitions occurred
SMILES: Cc1cccn2c(=O)c(-c3nnn[nH]3)cnc12 [pemirolast sodium hemihydrate, Pemirolast Sodium Hemihydrate]
hygroscopicity class by DVS analysis [3, 10]: hygroscopic (hygroscopic: increase of mass is less than 15% and equal to or greater than 2%) | solid phase stability ([2]; 75% RH and above): converted to a previously unknown solid state form | dissolution behaviour ([5]; listed as sodium hemihydrate salt, Sodium Hemihydrate): formed large aggregates and appeared to be more difficult to dissolve

solid phase stability ([2]; 60% RH, up to 4 weeks): stable | solid phase stability ([2]; dry conditions (10-20% RH)): converted to the hemihydrate form | phase transitions during tabletting (PXRD) [8]: no phase transitions occurred
SMILES: Cc1cccn2c(=O)c(-c3nn[n-]n3)cnc12.O.O.O.O.O.O.O.[Na+] [pemirolast sodium heptahydrate, Pemirolast Sodium Heptahydrate]
solid phase stability ([2]; 75% RH): converted partially to the new solid state form | solid phase stability ([2]; 90% RH): no signs of phase transitions were observed
